Where “and” joins values, the source holds several entries; their conditions need not be identical. Identical values can stand only once.
Columns and labels:
[1] = biological target: T1, Sterol O-acyltransferase 1 (Rattus norvegicus, UniProt O70536); assay: In vitro acyl-coenzyme A:cholesterol acyltransferase inhibition in rat liver microsomes; parameters: species or system Microsome
T1 sequence (O70536 whole entry): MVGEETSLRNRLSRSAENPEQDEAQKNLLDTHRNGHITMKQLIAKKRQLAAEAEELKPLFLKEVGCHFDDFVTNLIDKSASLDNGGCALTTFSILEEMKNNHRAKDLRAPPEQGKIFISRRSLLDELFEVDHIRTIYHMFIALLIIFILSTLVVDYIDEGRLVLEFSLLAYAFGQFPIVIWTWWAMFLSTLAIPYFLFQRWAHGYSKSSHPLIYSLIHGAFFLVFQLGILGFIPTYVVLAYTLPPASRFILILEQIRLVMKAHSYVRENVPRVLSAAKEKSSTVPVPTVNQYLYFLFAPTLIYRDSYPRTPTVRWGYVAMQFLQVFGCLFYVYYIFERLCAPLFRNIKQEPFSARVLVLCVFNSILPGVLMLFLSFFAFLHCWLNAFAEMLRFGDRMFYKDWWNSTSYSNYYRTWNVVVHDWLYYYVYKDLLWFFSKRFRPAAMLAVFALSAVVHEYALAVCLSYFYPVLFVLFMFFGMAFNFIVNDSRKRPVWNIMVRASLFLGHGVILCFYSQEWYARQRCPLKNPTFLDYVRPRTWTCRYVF

[2] = species: Mus musculus; assay: Inhibition of cholesterol esterification in macrophages (Cholesterol efflux); type: functional
[3] = Percent inhibition of cell viability in murine macrophages; type: functional, Mus musculus; parameters: concentration or dose not given beside the values
[4] = biological target: Sterol O-acyltransferase 1 (Mus musculus) (UniProt Q61263); assay: Inhibitory activity against Acyl-coenzyme A:cholesterol acyltransferase in macrophages
Chain of Sterol O-acyltransferase 1 (Mus musculus) (Q61263 whole entry, looked up): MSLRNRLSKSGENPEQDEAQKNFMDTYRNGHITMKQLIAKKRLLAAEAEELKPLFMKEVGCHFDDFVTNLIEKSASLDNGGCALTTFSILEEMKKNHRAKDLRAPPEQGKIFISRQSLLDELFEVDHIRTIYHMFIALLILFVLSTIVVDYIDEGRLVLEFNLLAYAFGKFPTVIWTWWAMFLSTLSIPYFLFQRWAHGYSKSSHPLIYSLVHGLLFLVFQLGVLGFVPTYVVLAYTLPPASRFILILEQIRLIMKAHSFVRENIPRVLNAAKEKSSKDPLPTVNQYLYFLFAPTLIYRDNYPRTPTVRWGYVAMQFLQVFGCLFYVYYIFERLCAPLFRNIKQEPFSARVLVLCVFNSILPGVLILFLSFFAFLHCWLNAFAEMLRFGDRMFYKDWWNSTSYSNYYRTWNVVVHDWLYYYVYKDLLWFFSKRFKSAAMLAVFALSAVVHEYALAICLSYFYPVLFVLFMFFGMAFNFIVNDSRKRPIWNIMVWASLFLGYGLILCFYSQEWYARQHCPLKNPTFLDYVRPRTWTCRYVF

SMILES	IC50 [1] [µM]	other results
CCCCCCCNc1cc(-c2ccccc2)c(-c2ccccc2)nn1	55	–
CCCCCCCCCOc1cc(-c2ccccc2)c(-c2ccccc2)nn1	180	–
O=C(O)CCCCCCn1nc(-c2ccccc2)c(-c2ccccc2)cc1=O	> 300	–
CCCCCCCn1nc(-c2ccccc2)c(-c2ccccc2)cc1=O	86	–
CCCCCCCC[S+]([O-])c1cc(-c2ccccc2)c(-c2ccccc2)nn1 (stereo unspecified)	92	–
O=C(O)CCCCCCCn1nc(-c2ccccc2)c(-c2ccccc2)cc1=O	> 300	–
O=C(O)CCCCCCCCSc1cc(-c2ccccc2)c(-c2ccccc2)nn1	> 300	–
CCCCCCOc1cc(-c2ccccc2)c(-c2ccccc2)nn1	72	–
CCCCCCn1nc(-c2ccccc2)c(-c2ccccc2)c(C)c1=O	56	–
CCCCCCCCOc1cc(-c2ccccc2)c(-c2ccccc2)nn1	104	–
CCCCCCCCC[S+]([O-])c1cc(-c2ccccc2)c(-c2ccccc2)nn1 (stereo unspecified)	87	–
CCCCCCCCCNc1cc(-c2ccccc2)c(-c2ccccc2)nn1	–	Esterification inhibitory concentration [2]: 14.1 µM and 13.8 µM; Inhibition [3]: 5.9% and 2.7% and <1%
CCCCCCCSc1cc(-c2ccccc2)c(-c2ccccc2)nn1	76	–
O=c1cc(-c2ccccc2)c(-c2ccccc2)nn1C1CCCC1	119	–
O=C(O)CCCCCCCSc1cc(-c2ccccc2)c(-c2ccccc2)nn1	> 300	–
CCCCCCC[S+]([O-])c1cc(-c2ccccc2)c(-c2ccccc2)nn1 (stereo unspecified)	77	–
CCCCCCn1nc(-c2ccccc2)c(-c2ccccc2)cc1=O	57	–
CCCCCC[S+]([O-])c1cc(-c2ccccc2)c(-c2ccccc2)nn1 (stereo unspecified)	75	–
CCCCCCCCNc1cc(-c2ccccc2)c(-c2ccccc2)nn1	40	Esterification inhibitory concentration [2]: 12.9 µM and 11.5 µM; Inhibition [3]: 11.5% and 9.9% and 3.7% and 4.8%; IC50 [4]: 3.2 µM
CCCCCCCCCS(=O)(=O)c1cc(-c2ccccc2)c(-c2ccccc2)nn1	76	–

SMILES	IC50 [1] [µM]	other results
O=C(O)CCCCCCSc1cc(-c2ccccc2)c(-c2ccccc2)nn1	> 300	–
CCCCCCNc1cc(-c2ccccc2)c(-c2ccccc2)nn1	24	–
O=c1cc(-c2ccccc2)c(-c2ccccc2)nn1C1CCCCC1	> 300	–
CCCCCCCCCn1nc(-c2ccccc2)c(-c2ccccc2)cc1=O	85	–
CCCCCCCS(=O)(=O)c1cc(-c2ccccc2)c(-c2ccccc2)nn1	49	–
CCCCCCCCS(=O)(=O)c1cc(-c2ccccc2)c(-c2ccccc2)nn1	36	–
CCCCCCCOc1cc(-c2ccccc2)c(-c2ccccc2)nn1	58	Esterification inhibitory concentration [2]: 12.6 µM and 11.8 µM; Inhibition [3]: <1%; IC50 [4]: 5.1 µM
CCCCn1nc(-c2ccccc2)c(-c2ccccc2)cc1=O	176	–
CCCCCCSc1cc(-c2ccccc2)c(-c2ccccc2)nn1	62	–
CCCCCCCCCSc1cc(-c2ccccc2)c(-c2ccccc2)nn1	116	–
CCCCCOc1cc(-c2ccccc2)c(-c2ccccc2)nn1	73	–
CCCCCC(=O)Nc1cc(-c2ccccc2)c(-c2ccccc2)nn1	> 300	–
O=C(O)CCCCCSc1cc(-c2ccccc2)c(-c2ccccc2)nn1	> 300	–
CCCn1nc(-c2ccccc2)c(-c2ccccc2)cc1=O	230	–
CC(C)n1nc(-c2ccccc2)c(-c2ccccc2)cc1=O	152	–
CCCCCCCCn1nc(-c2ccccc2)c(-c2ccccc2)cc1=O	80	–
CCCCCCCCSc1cc(-c2ccccc2)c(-c2ccccc2)nn1	130	–
CCCCCn1nc(-c2ccccc2)c(-c2ccccc2)cc1=O	66	–
CCCCCCS(=O)(=O)c1cc(-c2ccccc2)c(-c2ccccc2)nn1	60	–

Reference: ChEMBL document CHEMBL1134297, “5,6-Diphenylpyridazine derivatives as acyl-CoA:cholesterol acyltransferase inhibitors” (J Med Chem, 2001)
